{"source": "patent US10908141B2", "about": "“Methods and kits for detecting non-luminescent or weakly luminescent metals” (New York University, priority 2012, dated 2021)", "key": {"[1]": {"experiment": "Absorption and fluorescence spectroscopy (plate reader / nanodrop)", "assay_type": "physicochemical"}, "[2]": {"experiment": "Diffusivity by dynamic light scattering (DLS)", "assay_type": "physicochemical"}, "[3]": {"experiment": "Xylenol orange determination of free Gd3+ after chelation", "assay_type": "physicochemical", "description": "When xylenol orange coordinates Gd^3+ ion, absorption at 573 decreases relative to that at 433.\nFor determination of free Gd^3+ in solution after chelation. 3 mg xylenol orange was dissolved in 50 mM acetic acid pH 5.8, and 90 μL added to each well of a clear 96 well plate. Triplicate samples of 10 μL 10^−3M cs124-DTPA were added to each well, and increasing amounts of […] titrated in. Absorption was read at 573 and 433, against a standard of known Gd^3+ concentration."}, "[4]": {"experiment": "Stability of the chelate in solution over time (Tb/Gd metal exchange)", "assay_type": "physicochemical", "conditions": "5, 30, and 60 minutes", "text": "To determine the stability of the chelate in solution as a function of time, readings were made at different time points. If there is an exchange of Tb with Gd on the sensitized chelate, then a dramatic increase in signal should be observed. The intensity of cs124-DTPA-Tb is 10000 fold higher than the equivalent concentration of cs124-DTPA-Gd."}, "[5]": {"conditions": "mouse plasma, 0.1 mmol/kg via saphenous vein, bi-exponential fit"}, "[6]": {"conditions": "in vivo; cited from earlier work"}}, "note": "Where “and” joins values, the source holds several entries; their conditions need not be identical. Identical values can stand only once.", "data": [{"molecule": "Cc1cc(=O)[nH]c2cc(N)ccc12", "note": "[cs124, carbostyril124, reference compound]", "values": [{"measurement": "Absorbance Amax", "setting": "[1]", "result": 328, "unit": "nm"}, {"measurement": "Fluorescence Emmax", "setting": "[1]", "result": 370, "unit": "nm"}, {"measurement": "Fluorescence Exmax", "setting": "[1]", "result": 310, "unit": "nm"}]}, {"molecule": "[Gd+3]", "note": "[Gd3+, reference compound]", "values": [{"measurement": "Relaxivity r1", "setting": "Relaxivity r1", "result": "9.16 ± 0.96", "unit": "M⁻¹ ms⁻¹"}, {"measurement": "Diffusivity D", "setting": "[2]", "result": "8.0 × 10^−6 cm^2/s"}]}, {"molecule": "carbostyril-124-diethylenetriaminepentaacetic acid-Gadolinium [cs124-DTPA-Gd]", "values": [{"measurement": "Relaxivity compared with DTPA-Gd", "setting": "Relaxivity r1", "result": "the same as that of DTPA-Gd"}, {"measurement": "Relaxivity r1", "setting": "Relaxivity r1", "result": "3.32 ± 1.4", "unit": "M⁻¹ ms⁻¹"}, {"measurement": "Free Gd3+ ion concentration", "setting": "[3]; incubated with 50 mM xylenol orange", "result": 0.06, "unit": "%"}, {"measurement": "Concentration of chelated complex above which free Gd3+ is detectable", "setting": "[3]; incubated with xylenol orange in 50 mM acetic acid pH 5.8", "result": "above 1.75 mM"}, {"measurement": "Diffusivity D", "setting": "[2]", "result": "2.5 × 10^−6 cm^2/s"}, {"measurement": "Absorbance Amax", "setting": "[1]", "result": 328, "unit": "nm"}, {"measurement": "Fluorescence Emmax", "setting": "[1]", "result": 375, "unit": "nm"}, {"measurement": "Fluorescence Exmax", "setting": "[1]", "result": 341, "unit": "nm"}, {"measurement": "Change of intensity over time (metal exchange between sensitized and unsensitized chelates)", "setting": "[4]", "result": "No significant change"}, {"measurement": "Characteristic distribution time", "setting": "[5]", "result": "13.2 ± 0.543 min and 14 min"}, {"measurement": "Elimination time", "setting": "[5]", "result": "92.2 ± 11.7 min and 90 min"}]}, {"molecule": "O=C([O-])CN(CCN(CC(=O)[O-])CC(=O)O)CCN(CC(=O)[O-])CC(=O)O.[Gd+3]", "note": "[Magnevist ®, gadolinium-diethylenetriaminepentaacetic acid]", "values": [{"measurement": "Relaxivity r1", "setting": "Relaxivity r1", "result": 3.4, "unit": "M⁻¹ ms⁻¹"}, {"measurement": "Distribution half-life", "setting": "[6]", "result": 12, "unit": "min"}, {"measurement": "Distribution time (manufacturer's data)", "setting": "[6]", "result": "12.2 ± 7.8", "unit": "min"}, {"measurement": "Elimination time (manufacturer's data)", "setting": "[6]", "result": "96.0 ± 7.8", "unit": "min"}, {"measurement": "Plasma clearance half-life", "setting": "[6]", "result": "approximately 81 min"}]}]}
